Data taken from patent EP4471049A1 (Zealand Pharma A/S, priority 2023, dated 2024).
pIC50: −log10 of the molar value. Like-named read-outs stand apart in the source and are kept apart here. *1 amine or outer side, *2 acyl side, *3 side chain or, on linkers, in order; H or OH if unused. Where a SMILES comes first, the peptide text is derived from it. Bridges are numbered along the chain shown (N, C = ends). [ ]: non-standard residue; d: D form. 2Nal = N[C@@H](Cc1ccc2ccccc2c1)C(=O)O; AEF = NCCOc1ccc(C[C@H](N)C(=O)O)cc1; X1 = O=C(Cc1ccc(CN[*:1])cc1)[*:2]; 3Pal = N[C@@H](Cc1cccnc1)C(=O)O; αMeL = CC(C)C[C@](C)(N)C(=O)O; Dab = NCC[C@H](N)C(=O)O; Sar = CNCC(=O)O

What was measured:
[1] = target: IL-23 mediated STAT3 signalling (Homo sapiens, UniProt Q5VWK5); assay: Functional inhibition of IL-23 mediated STAT3 signalling (phospho-STAT3 Tyr705 MSD, DB cells); type: cell-based
Sequence of IL-23 mediated STAT3 signalling (Q5VWK5 24-629 limits assumed): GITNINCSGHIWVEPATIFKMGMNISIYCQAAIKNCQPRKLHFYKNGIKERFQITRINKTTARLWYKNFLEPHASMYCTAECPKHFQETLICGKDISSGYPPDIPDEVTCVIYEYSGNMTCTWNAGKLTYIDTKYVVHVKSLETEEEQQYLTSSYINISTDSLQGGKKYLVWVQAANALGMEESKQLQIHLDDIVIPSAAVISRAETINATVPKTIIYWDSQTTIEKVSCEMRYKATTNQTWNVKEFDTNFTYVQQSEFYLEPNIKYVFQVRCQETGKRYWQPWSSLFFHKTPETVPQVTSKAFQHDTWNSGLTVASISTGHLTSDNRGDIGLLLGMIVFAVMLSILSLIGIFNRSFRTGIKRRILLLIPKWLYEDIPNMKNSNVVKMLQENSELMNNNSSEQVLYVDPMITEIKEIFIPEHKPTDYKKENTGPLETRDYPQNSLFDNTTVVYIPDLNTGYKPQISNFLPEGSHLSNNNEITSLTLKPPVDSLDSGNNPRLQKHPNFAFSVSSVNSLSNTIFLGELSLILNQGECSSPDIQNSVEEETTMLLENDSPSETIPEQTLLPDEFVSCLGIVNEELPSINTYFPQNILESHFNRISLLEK
Method: The ability of compounds to inhibit IL-23 mediated signalling was determined in the human-derived DB cell line (CRL-2289) (hereafter referred to as DB cells), which endogenously expresses the human IL-23R and human IL-12R β1 subunits. Upon binding of IL-23, the IL-23R forms a heterodimer signalling complex together with IL-12R β1, which through the JAK2/STAT3 pathway promotes phosphorylation of STAT3 to form phospho-STAT3. In the assay, the functional antagonism of IL-23 mediated phospho-STAT3 formation in DB cells by the compound is quantified using reagents capable of measuring the phosphorylation state of Tyr705 of STAT3 in the form of a phospho-STAT3 (Tyr705) MSD (Meso Scale Discovery) kit.
[…]. For compounds tested in this assay, the response was normalized relative to control values to calculate the IC50 and maximal inhibitory response from a concentration response curve of the compound in presence of a fixed concentration of human IL-23.
The assay procedure was as follows. DB cells were maintained in growth medium consisting of RPMI-1640 [Invitrogen 61870-010] supplemented with 10% V/V Foetal Bovine Serum (FBS) [(heat inactivated), Invitrogen 10270-106], and 1% V/V Penicillin-Streptomycin (Pen-Strep) Solution [Invitrogen 15140]. On the day of assay, cells were resuspended in Assay buffer consisting of RPMI-1640 [Invitrogen 61870-010] supplemented with 0.1 % w/V BSA [Sigma-Aldrich A9430] to a density of 7.5x10^6 cells/mL. Compounds to be tested for inhibition of hIL-23 mediated signalling were serially diluted in Assay buffer to 3X the final concentration. A solution of hIL-23 corresponding to 3X the EC80 of hIL-23 (1.7 nM) was also prepared in Assay buffer. To initiate the assay, 20 µL of DB cell suspension (corresponding to 150.000 cells/well) was added to the wells of a 96-well V-bottom Polypropylene plate [Corning 3363] followed by addition of 3X 20 µL of the diluted test compounds to separate wells. Following preincubation of the DB cells with inhibitor for 15 min in a cell incubator (37 °C, 5% CO2), 20 µL of the prepared 3X the EC80 of hIL-23 solution was added to each well and incubated for 90 min in a cell incubator (37 °C, 5% CO2). For some wells buffer only or IL-23 only corresponding to the EC80 was added to obtain readouts needed for normalization. To terminate the assay, the plate was spun at 1000 G for 5 min to pellet cells, the supernatant removed using an 8-channel manual pipette, and then added 50 µL/well Complete Lysis Buffer from the MSD STAT3 kit (Cat# K150SVD, Mesoscale) to the cell pellet. To completely lyse cells to release phospho-STAT3 for detection, the plate was shaken for 10 min at room temperature (500 rpm) sealed with aluminium foil and placed at -80 °C for a minimum of 15 min. Detection of the phospho-STAT3 level in the cell lysate from the individual wells was determined using the MSD STAT3 kit (Cat# K150SVD, Mesoscale) and read on a Meso QuickPlex SQ 120 plate reader (Mesoscale).
For data analysis raw data counts from the Meso QuickPlex SQ 120 plate reader were normalized relative to the response by the EC80 of hIL-23 alone (no compound added) and the buffer level. Compound potency (IC50) and maximal inhibitory response (% inhibition) were estimated by computer-aided curve fitting using a 4-parameter logistic (4PL) non-linear model. […]. Typically compounds with a low IC50 are desired. Typically compounds capable of completely inhibiting the IL23-induced response are desired. […]. Table 3-2: hIL-23 (pSTAT3) antagonist IC50 and % inhibition data

[2] = Peptide stability in simulated gastric fluid (SGF); type: in vitro ADME; conditions: pig, simulated gastric fluid (SGF) with porcine pepsin, 37 °C, pH 1.2, porcine pepsin 3.2 g/L
Summary of the method: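 Peptide incubated at 37 °C with gentle shaking in SGF (NaCl, pH 1.2). Samples centrifuged, diluted and analysed by LC-HRMS; percent remaining at each timepoint from absolute peak areas relative to time zero, with 4 h as the reference point.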

[3] = Example 2 (Tables 2-1 to 2-4), read-out: IC50 (pSTAT3)

pIC50 [1, 3]	remaining at 1 h, 10 µM [2] [%]	remaining at 4 h, 10 µM [2] [%]	pIC50 ([1]; Table 3-2, EC80 of hIL-23, read-out: hIL-23 (pSTAT3) antagonist IC50)	Compound
8.77	99			CC(C)C[C@]1(C)NC(=O)[C@H](Cc2ccc3ccccc3c2)NC(=O)[C@H](Cc2ccc(OCCN)cc2)NC(=O)[C@@H]2CCNC(=O)CC[C@H](NC(=O)[C@H](CO)NC(=O)Cc3ccc(cc3)CNC(=O)CC[C@@H](C(=O)N[C@@H](CCN)C(=O)N[C@@](C)(Cc3cccnc3)C(N)=O)NC1=O)C(=O)N[C@@H](Cc1c[nH]c3ccccc13)C(=O)N[C@@H](CCC(N)=O)C(=O)N2 [Compound 3, [4-Aminomethyl-phenylacetyl](1c)*SE(2c)WQ[Dab](2c)[Y(2-aminoethoxy)][2-Nal][2-Me-Leu]E(1c)[Dab][2-Me-3-(3-Pyridyl)-Ala]-[NH2]]
8.19	97			CC(C)C[C@]1(C)NC(=O)[C@H](Cc2ccc3ccccc3c2)NC(=O)[C@H](Cc2ccc(OCCN)cc2)NC(=O)[C@@H]2CCNC(=O)CC[C@H](NC(=O)[C@H](CO)NC(=O)Cc3ccc(cc3)CNC(=O)CC[C@@H](C(=O)N[C@@H](CCN)C(=O)N(C)[C@@H](Cc3cccnc3)C(N)=O)NC1=O)C(=O)N[C@@H](Cc1c[nH]c3ccccc13)C(=O)N[C@@H](CCC(N)=O)C(=O)N2 [Compound 4, [4-Aminomethyl-phenylacetyl](1c)*SE(2c)WQ[Dab](2c)[Y(2-aminoethoxy)][2-Nal][2-Me-Leu]E(1c)[Dab][N-Me-3-(3-Pyridyl)-Ala]-[NH2]]
8.68	99			CC(C)C[C@]1(C)NC(=O)[C@H](Cc2ccc3ccccc3c2)NC(=O)[C@H](Cc2ccc(OCCN)cc2)NC(=O)[C@@H]2CCNC(=O)CC[C@H](NC(=O)[C@H](CO)NC(=O)Cc3ccc(cc3)CNC(=O)CC[C@@H](C(=O)N[C@@H](CCN)C(=O)N[C@H](Cc3cccnc3)C(N)=O)NC1=O)C(=O)N[C@@H](Cc1c[nH]c3ccccc13)C(=O)N[C@@H](CCC(N)=O)C(=O)N2 [Compound 5, [4-Aminomethyl-phenylacetyl](1c)*SE(2c)WQ[Dab](2c)[Y(2-aminoethoxy)][2-Nal][2-Me-Leu]E(1c)[Dab][{d}3-(3-Pyridyl)-Ala]-[NH2]]
8.49				CC(C)C[C@]1(C)NC(=O)[C@H](Cc2ccc3ccccc3c2)NC(=O)[C@H](Cc2ccc(OCCN)cc2)NC(=O)[C@@H]2CCNC(=O)CC[C@H](NC(=O)[C@H](CO)NC(=O)Cc3ccc(cc3)CNC(=O)CC[C@@H](C(=O)N[C@@H](CCN)C(=O)NCCCCc3cccnc3)NC1=O)C(=O)N[C@@H](Cc1c[nH]c3ccccc13)C(=O)N[C@@H](CCC(N)=O)C(=O)N2 [Compound 6, [4-Aminomethyl-phenylacetyl](1c)*SE(2c)WQ[Dab](2c)[Y(2-aminoethoxy)][2-Nal][2-Me-Leu]E(1c)[Dab]-[NH-(4-(pyridin-3-yl)butanyl)]]
9.89	77	82		CC(C)C[C@]1(C)NC(=O)[C@H](Cc2ccc3ccccc3c2)NC(=O)[C@H](Cc2ccc(OCCN)cc2)NC(=O)[C@@H]2CCNC(=O)CC[C@H](NC(=O)[C@H](CO)NC(=O)Cc3ccc(cc3)CNC(=O)CC[C@@H](C(=O)N[C@@H](CCN)C(=O)NCCc3cccnc3)NC1=O)C(=O)N[C@@H](Cc1c[nH]c3ccccc13)C(=O)N[C@@H](CCC(N)=O)C(=O)N2 [Compound 7, [4-Aminomethyl-phenylacetyl](1c)*SE(2c)WQ[Dab](2c)[Y(2-aminoethoxy)][2-Nal][2-Me-Leu]E(1c)[Dab]-[NH-(2-(pyridin-3-yl)ethyl)]]
10.28				CNC(=O)[C@H](Cc1cccnc1)NC(=O)[C@H](CCN)NC(=O)[C@@H]1CCC(=O)NCc2ccc(cc2)CC(=O)N[C@@H](CO)C(=O)N[C@H]2CCC(=O)NCC[C@H](NC(=O)[C@H](CCC(N)=O)NC(=O)[C@H](Cc3c[nH]c4ccccc34)NC2=O)C(=O)N[C@@H](Cc2ccc(OCCN)cc2)C(=O)N[C@@H](Cc2ccc3ccccc3c2)C(=O)N[C@@](C)(CC(C)C)C(=O)N1 [Compound 8, [4-Aminomethyl-phenylacetyl](1c)*SE(2c)WQ[Dab](2c)[Y(2-aminoethoxy)][2-Nal][2-Me-Leu]E(1c)[Dab][3-(3-Pyridyl)-Ala]-[NHMe]]
10.60	96			CC(C)C[C@]1(C)NC(=O)[C@H](Cc2ccc3ccccc3c2)NC(=O)[C@H](Cc2ccc(OCCN)cc2)NC(=O)[C@@H]2CCNC(=O)CC[C@H](NC(=O)[C@H](CO)NC(=O)Cc3ccc(cc3)CNC(=O)CC[C@@H](C(=O)N[C@@H](CCN)C(=O)N[C@@H](Cc3cccnc3)C(=O)N(C)CC(N)=O)NC1=O)C(=O)N[C@@H](Cc1c[nH]c3ccccc13)C(=O)N[C@@H](CCC(N)=O)C(=O)N2 [Compound 9, [4-Aminomethyl-phenylacetyl](1c)*SE(2c)WQ[Dab](2c)[Y(2-aminoethoxy)][2-Nal][2-Me-Leu]E(1c)[Dab][3-(3-Pyridyl)-Ala][Sar]-[NH2]] ([X1]SEWQ[Dab][AEF][2Nal][αMeL]E[Dab][3Pal][Sar]-NH2; lactam 3-6, N-10)
10.42	97	86		CC(C)C[C@]1(C)NC(=O)[C@H](Cc2ccc3ccccc3c2)NC(=O)[C@H](Cc2ccc(OCCN)cc2)NC(=O)[C@@H]2CCNC(=O)CC[C@H](NC(=O)[C@H](CO)NC(=O)Cc3ccc(cc3)CNC(=O)CC[C@@H](C(=O)N[C@@H](CCN)C(=O)N[C@@H](Cc3cccnc3)C(=O)N[C@H](Cc3c[nH]cn3)C(N)=O)NC1=O)C(=O)N[C@@H](Cc1c[nH]c3ccccc13)C(=O)N[C@@H](CCC(N)=O)C(=O)N2 [Compound 10, [4-Aminomethyl-phenylacetyl](1c)*SE(2c)WQ[Dab](2c)[Y(2-aminoethoxy)][2-Nal][2-Me-Leu]E(1c)[Dab][3-(3-Pyridyl)-Ala][{d}H]-[NH2]] ([X1]SEWQ[Dab][AEF][2Nal][αMeL]E[Dab][3Pal][dH]-NH2; lactam 3-6, N-10)
		93	8.46	CC(C)C[C@]1(C)NC(=O)[C@H](Cc2ccc3ccccc3c2)NC(=O)[C@H](Cc2ccc(OCCN)cc2)NC(=O)[C@@H]2CCNC(=O)CC[C@H](NC(=O)[C@H](CO)NC(=O)Cc3ccc(cc3)CNC(=O)CC[C@@H](C(=O)N[C@@H](CCN)C(=O)N[C@@H](Cc3c[nH]cn3)C(=O)N[C@@H](Cc3cccnc3)C(N)=O)NC1=O)C(=O)N[C@@H](Cc1c[nH]c3ccccc13)C(=O)N[C@@H](CCC(N)=O)C(=O)N2 [Compound 12, [4-Aminomethyl-phenylacetyl](1c)*SE(2c)WQ[Dab](2c)[Y(2-aminoethoxy)][2-Nal][2-Me-Leu]E(1c)[Dab]H[3-(3-Pyridyl)-Ala]-[NH2]] ([X1]SEWQ[Dab][AEF][2Nal][αMeL]E[Dab]H[3Pal]-NH2; lactam 3-6, N-10)
8.17		78		CC(C)C[C@]1(C)NC(=O)[C@H](Cc2ccc3ccccc3c2)NC(=O)[C@H](Cc2ccc(OCCN)cc2)NC(=O)[C@@H]2CCNC(=O)CC[C@H](NC(=O)[C@H](CO)NC(=O)Cc3ccc(cc3)CNC(=O)CC[C@@H](C(=O)N[C@@H](CCN)C(=O)N[C@H](Cc3c[nH]cn3)C(N)=O)NC1=O)C(=O)N[C@@H](Cc1c[nH]c3ccccc13)C(=O)N[C@@H](CCC(N)=O)C(=O)N2 [Compound 13, [4-Aminomethyl-phenylacetyl](1c)*SE(2c)WQ[Dab](2c)[Y(2-aminoethoxy)][2-Nal][2-Me-Leu]E(1c)[Dab][{d}H]-[NH2]]
